“And” between values parts separate entries of the source, which are not always exact repeats. Identical values can stand only once.
How the values were obtained:
[1] = system: P. falciparum NF54-HGL gametocytes; set-up: method as in earlier work; settings: ref 15 (Schalkwijk et al.); read-out: Gametocyte IC50; cited from earlier work
panel of human enzymes = test: Off-target enzyme and uptake assays (Eurofins CEREP); assay type: biochemical; settings: for % Inhibition of Control Values: Rep1, Rep2, Mean
[2] = system: P. falciparum NF54 male gametocytes; test: Dual gamete formation assay, male; assay type: cell-based, Plasmodium falciparum
Method: After a 48-h incubation, gamete formation was stimulated by a drop in temperature (from 37 °C to 26 °C), and the addition of xanthurenic acid (2.5 µM). At 20 min after induction, exflagellation was recorded by automated time-lapse microscopy. After data collection, the plate was returned to a 26 °C incubator and incubated for 24 h. Female gamete formation was assessed by live staining with a Cy3-labelled anti-Pfs25 monoclonal antibody (1:2222) and recorded by automated microscopy.

AcAS-cKD P. falciparum = test: Drug sensitivity of AcAS conditional knockdown parasites; assay type: cell-based, Plasmodium falciparum; settings: […] vs 500 nM aTc
Method: Replication assays were performed using a SYBR Green method as described previously. Briefly, asynchronous parasites were diluted to 0.83% parasitemia, 3% hematocrit in 30 µl medium, and added to 30 µl of diluted compounds in medium (0.1% DMSO final concentration) in black 384-wells plates. After a 72-h incubation, 30 µl of SYBR Green diluted in lysis buffer was added according to the manufacturer’s protocol (Life Technologies). Fluorescence intensity was measured on a BioTek Synergy 2 Plate Reader after 1-h incubation and was normalized to a DMSO control (100% growth) and DHA- or epoxomicin-treatment (no growth). […] Parasite survival was assessed by flow cytometry on an Accuri C6 (BD Biosciences) with BD C6 Plus software using SYBR Green and MitoTracker Deep Red FM (Life Technologies) as nuclear stain and vital dye, respectively, and data were analyzed using FlowJo (10.5.0). […] Luminescence was measured after 72 h using the Renilla-Glo(R) Luciferase Assay System (Promega E2750) and the GlomAX® Discover Multimode Microplate Reader (Promega). The luminescence values were normalized to DMSO vehicle (100% growth) and 200 nM chloroquine-treated (no growth) samples as controls.

[3] = Solubility in PBS, FaSSIF, FeSSIF; assay type: physicochemical
[4] = Population PK model in NSG mice; assay type: in vivo, female NSG mice; settings: population PK model estimate
Method: The experimental designs are summarized in Supplementary Table 30. […] Samples were processed under liquid-liquid extraction methods and analyzed by LC-MS/MS for quantitation in a Waters UPLC-TQD (Micromass, Manchester, UK).
Data preparation, exploration and model pre- and postprocessing were performed using R (version 3.6.3) and R package IQRtools (version 1.2.1 IntiQuan GmbH). Non-linear mixed-effects (NLME) modeling was used to estimate the PK and PD parameters using Monolix (Lixoft version MLX2018R2). The population PKPD model was developed with a two-stage approach: first, a population PK model was determined; then, the individual PK parameters were used as regression parameters and the PD parameters were estimated. The PD model consists of the balance between a parasite net growth rate and a drug killing rate. […] The growth rate of log-transformed parasite concentration was fixed at 0.03 /h based on prior experiments but estimating growth rate interindividual variability. Different Hill coefficients were tested.

Pharmacokinetics in rats = assay type: in vivo, Sprague Dawley rats
Method: (§1) Subsequently, samples were spun down at 1640 g for 5-10 min at 4 °C within 30 min after collection and plasma was collected. […] Urine was collected following an intravenous dose in both rat and dog, allowing renal clearance to be estimated. Human renal clearance was estimated from dog renal clearance as previously described[40] and other human PK parameters were predicted using allometric scaling and/or in vitro clearance data. PK parameters were calculated by naïve pooled approach using WinNonLin software (Phoenix, version 6.3).

Renal excretion in dogs = assay type: in vivo, dog; settings: for Concentration (ng/ml) in urine: dog urine, individual dogs 1-3
Method: as §1, with “A blood sample from the saphenous vein was collected into heparinized capillary tubes at multiple intervals between 0.25 and 24 h after dosing. Subsequently,” for “Subsequently,”

For CC(CNC(=O)C(O)C(C)(C)CO)NC(=O)CCc1ccccc1F (stereo in doubt) [MMV689258], the IC50 [1] is listed as 12 nM.
In the case of C[C@@H](CNC(=O)[C@H](O)C(C)(C)CO)NC(=O)c1cc(F)c(F)cc1F [MMV693183], the “induction, GABA transaminase” value (panel of human enzymes; 10 µM) is reported as 30.7%, the “inhibition, HDAC11” value (panel of human enzymes; 10 µM) is reported as 36.9% and the “inhibition/induction, all other enzyme and uptake assays” value (panel of human enzymes; 10 µM) is reported as “less than 25%”. For the same compound, the “% Inhibition of Control Values” (panel of human enzymes; ATPase (Na+/K+)) was -2.75% and -1.9% and -3.6%, the “% Inhibition of Control Values” (panel of human enzymes; CENP-E (h)) was -0.4% and -0.6% and -0.2% and the “% Inhibition of Control Values” (panel of human enzymes; COX1(h)) was -4.65% and -5.4% and -3.9%. For the same compound, the “% Inhibition of Control Values” (panel of human enzymes; Eg5 (h)) was -5.55% and -2% and -9.1%, the “% Inhibition of Control Values” (panel of human enzymes; GABA transaminase) was -30.7% and -29.5% and -31.9% and the “% Inhibition of Control Values” (panel of human enzymes; HDAC6 (h)) was -14.7% and -18.7% and -10.7%. The “% Inhibition of Control Values” (panel of human enzymes; HDAC11 (h)) was 36.9% and 32.5% and 41.3%, the “% Inhibition of Control Values” (panel of human enzymes; MAO-A (h)) was 1.7% and -0.1% and 3.5% and the “% Inhibition of Control Values” (panel of human enzymes; MAO-B (h) recombinant enzyme) was -1.9%. For the same compound, the “% Inhibition of Control Values” (panel of human enzymes; PDE1B (h)) was 0.9% and -2.7% and 4.5%, the “% Inhibition of Control Values” (panel of human enzymes; PDE2A1 (h)) was -1% and -4.3% and 2.3% and the “% Inhibition of Control Values” (panel of human enzymes; PDE3A (h)) was 1.1% and -1.7% and 3.9%. For the same compound, the “% Inhibition of Control Values” (panel of human enzymes; PDE5 (h) (non-selective)) was -3.55% and -4.2% and -2.9%, the “% Inhibition of Control Values” (panel of human enzymes; acetylcholinesterase (h)) was 5.45% and 8.7% and 2.2% and the “% Inhibition of Control Values” (panel of human enzymes; phosphatase 1B (h) (PTP1B)) was 10.8% and 11.2% and 10.4%. For the same compound, the “% Inhibition of Control Values” (panel of human enzymes; phosphatase CDC25A (h)) was -0.35% and -5% and 4.3%, the “% Inhibition of Control Values” (panel of human enzymes; sirtuin 1 (h) (inhibitor effect)) was -1.45% and -1.9% and -1% and the “% Inhibition of Control Values” (panel of human enzymes; tyrosine hydroxylase) was -0.5% and 2.4% and -3.4%. The IC50 [2] was 1000 nM, the “IC50 decrease upon knockdown (low aTc)” value (AcAS-cKD P. falciparum) was 5 fold and the solubility ([3]; FaSSIF) was 25.5 µM. It also gave a solubility ([3]; FeSSIF) of 25.0 µM, a solubility ([3]; PBS) of 7100 µg/mL and a solubility ([3]; fasted-state simulated intestinal fluid) of 9200 µg/mL. The solubility ([3]; fed-state simulated intestinal fluid) was 9100 µg/mL, the “CL, apparent clearance” value [4] was 1.25 L/h and the “Tk0, absorption time” value [4] was 0.364 h. The “Vc, apparent central volume” value [4] was 2.25 L, the “Vp1, apparent peripheral volume” value [4] was 799 L and the “Vp2, apparent second peripheral volume” value [4] was 1.81 L. The “Observed hepatic/ predicted hepatic” value (Pharmacokinetics in rats; Rat) was 1.0, the “Observed total-renal = observed hepatic” value (Pharmacokinetics in rats; Rat) was 13.5 mL/min/kg and the “Predicted hepatic plasma clearance” value (Pharmacokinetics in rats; Rat) was 13.3 mL/min/kg. For the same compound, the Norm. conc i.v. (Pharmacokinetics in rats; Rat, Time (hrs) 0) was 0 ng/mL, the Norm. conc i.v. (Pharmacokinetics in rats; Rat, Time (hrs) 0.083333) was 1040 ng/mL and 843.333 ng/mL and the Norm. conc i.v. (Pharmacokinetics in rats; Rat, Time (hrs) 0.25) was 746.667 ng/mL and 613.333 ng/mL and 566.667 ng/mL. For the same compound, the Norm. conc i.v. (Pharmacokinetics in rats; Rat, Time (hrs) 0.5) was 490 ng/mL and 406.667 ng/mL and 376.667 ng/mL, the Norm. conc i.v. (Pharmacokinetics in rats; Rat, Time (hrs) 1) was 217.333 ng/mL and 175 ng/mL and 167 ng/mL and the Norm. conc i.v. (Pharmacokinetics in rats; Rat, Time (hrs) 2) was 53.3333 ng/mL and 56.3333 ng/mL and 51.6667 ng/mL. For the same compound, the Norm. conc i.v. (Pharmacokinetics in rats; Rat, Time (hrs) 4) was 21.4 ng/mL and 17.9 ng/mL and 18.1 ng/mL, the Norm. conc p.o. (Pharmacokinetics in rats; Rat, Time (hrs) 0) was 0 ng/mL and the Norm. conc p.o. (Pharmacokinetics in rats; Rat, Time (hrs) 0.25) was 726.667 ng/mL and 573.333 ng/mL and 746.667 ng/mL. For the same compound, the Norm. conc p.o. (Pharmacokinetics in rats; Rat, Time (hrs) 0.5) was 686.667 ng/mL and 511.333 ng/mL and 591.333 ng/mL, the Norm. conc p.o. (Pharmacokinetics in rats; Rat, Time (hrs) 1) was 380.667 ng/mL and 303.333 ng/mL and 362 ng/mL and the Norm. conc p.o. (Pharmacokinetics in rats; Rat, Time (hrs) 4) was 22.4667 ng/mL and 18.8 ng/mL and 29.5 ng/mL. The Norm. conc p.o. (Pharmacokinetics in rats; Rat, Time (hrs) 8) was 12.2 ng/mL and 7.667 ng/mL and 10.6333 ng/mL, the “AUC0-∞” value (Pharmacokinetics in rats; i.v. 3 mg/kg, mean) was 2398.4 ng·h/mL and the AUClast (Pharmacokinetics in rats; i.v. 3 mg/kg, mean) was 2394.8 ng·h/mL. It also gave a C0 (Pharmacokinetics in rats; i.v. 3 mg/kg, mean) of 3245.1 ng/mL, a Kel (Pharmacokinetics in rats; i.v. 3 mg/kg, mean) of 0.22 h⁻¹ and a Vss_obs (Pharmacokinetics in rats; i.v. 3 mg/kg, mean) of 1.9624 L/kg. For the same compound, the CLtotal (Pharmacokinetics in rats; i.v. 3 mg/kg, mean, 3 mg/kg) was 21.1 mL/min/kg and 21.14 mL/min/kg and 21 mL/min/kg, the T1/2 (Pharmacokinetics in rats; i.v. 3 mg/kg, mean, 3 mg/kg) was 3.1 h and 3.13 h and the “AUC0-∞” value (Pharmacokinetics in rats; p.o. 30 mg/kg, mean) was 29077.1 ng·h/mL. It also gave an AUClast (Pharmacokinetics in rats; p.o. 30 mg/kg, mean) of 29063.9 ng·h/mL, a CLtotal (Pharmacokinetics in rats; p.o. 30 mg/kg, mean) of 17.57 mL/min/kg and a Cmax (Pharmacokinetics in rats; p.o. 30 mg/kg, mean) of 20466.7 ng/mL. The Kel (Pharmacokinetics in rats; p.o. 30 mg/kg, mean) was 0.27 h⁻¹, the T1/2 (Pharmacokinetics in rats; p.o. 30 mg/kg, mean) was 2.57 h and the Tmax (Pharmacokinetics in rats; p.o. 30 mg/kg, mean) was 0.25 h. The “%F” value (Pharmacokinetics in rats; p.o. 30 mg/kg, mean, 30 mg/kg) was 121% and 121.24%, the “Observed renal plasma clearance” value (Renal excretion in dogs; Dog) was 1.0 mL/min/kg and the Dose in urine (Renal excretion in dogs; Mean) was 0.0332. For the same compound, the Total in urine (Renal excretion in dogs; Mean) was 384 µg, the “Concentration (ng/ml) in urine” value (Renal excretion in dogs; interval 0 to 4 h) was 2790 ng/mL and 4550 ng/mL and 7660 ng/mL and the “Concentration (ng/ml) in urine” value (Renal excretion in dogs; interval 8 to 24 h) was 6890 ng/mL and 3700 ng/mL. For the same compound, the “drug eliminated in urine” value (Renal excretion in dogs; dogs, i.v. 1 mg/kg, dog with 170 ml urine) was 8.9%, the Dose in urine (Renal excretion in dogs; i.v. 1 mg/kg, total per animal 1-3, 1 mg/kg) was 0.002 and 0.089 and 0.009 and the Total in urine (Renal excretion in dogs; total 0-24 h per animal 1-3) was 22.32 µg and 1030.9 µg and 98.8 µg.
